From patent US7129243B2, “Peptide compounds” (Astellas Pharma Inc., priority 2001, dated 2006) come the findings set out here.

The test system of the assay is production of nitric oxide in murine macrophage cell line RAW264.7. Kind of assay: Assay for inhibitory activity on the production of nitric oxide. The assay is classed as cell-based. To be noted: Mus musculus; test compound 10^−6 M; RAW264.7 cells activated with LPS (1 μg/ml) and INF γ (3 u/ml) for 18–24 hours; NO2^− by Griess reagent. The method, then: The murine macrophage cell line RAW264.7 (American Type Culture Collection, No. TIB71) was used in this study. RAW264.7 cells were grown on […] plastic culture flasks at 37° C., 5% in Dulbecco's modified Eagle's medium (DMEM) supplemented with L-glutamine, penicillin, streptomycin and 10% heat-inactivated fetal bovine serum. They were removed from culture flasks by rubber cell scraper and were centrifuged and resuspended in DEM without phenol red. They were plated in 96-well microtiter plates (10^5 cells per well) and allowed to adhere over 2 hours. The test samples were added and the cells were preincubated for 1 hour. Thereafter the cells were activated with both of lipopolysaccharide (LPS) (1 μg/ml) and interferon γ (INF γ) (3 u/ml) for 18-24 hours. An equal volume of Griess reagent (1% sulfanilamide/0.1% N-naphthylethylenediamine dihydrochloride/2.5% H3PO4) was added and the cells were incubated at room temperature for 10 minutes. The absorbance was read at 570 nm using microplate reader and NO2^- was measured using NaNO2 as a standard.
(In general: The Griess reaction detects nitrite, a stable product of nitric oxide.)

For the compound `COc1cccc(OC2CCN(C(=O)CNC(=O)[C@H](Cc3ccccn3)NC(=O)c3cc4cc(Cl)ccc4o3)CC2)n1` [Compound (c), 5-Chloro-N-[(1S)-2-[(2-{4-[(6-methoxy-2-pyridyl)oxy]-1-piperidinyl}-2-oxoethyl)amino]-2-oxo-1-(2-pyridylmethyl)ethyl]-1-benzofuran-2-carboxamide], the inhibition – broadly, how much of the control response was suppressed – at 1 µM was 100%. `O=C(/C=C/c1ccc(Cl)cc1)N[C@@H](Cc1ccccn1)C(=O)NCC(=O)N1CCC(Oc2cnccn2)CC1` [Compound (b), (2E)-3-(4-Chlorophenyl)-N-[(1S)-2-oxo-2-({2-oxo-2-[4-(2-pyrazinyloxy)-1-piperidinyl]ethyl}amino)-1-(2-pyridylmethyl)ethyl]acrylamide] showed an inhibition at 1 µM of 97.6%. Turning to `CC(C)OC1CCN(C(=O)CNC(=O)[C@H](Cc2ccccn2)NC(=O)/C=C/c2ccc(Cl)cc2)CC1` [Compound (g), (2E)-3-(4-Chlorophenyl)-N-[(1S)-2-{[2-(4-isopropoxy-1-piperidinyl)-2-oxoethyl]amino}-2-oxo-1-(2-pyridylmethyl)ethyl]acrylamide], the inhibition at 1 µM was 100%.

`O=C(N[C@@H](Cc1ccccn1)C(=O)NCC(=O)N1CCC(Oc2ccccn2)CC1)c1cc2cc(Cl)ccc2o1` [Compound (d), 5-Chloro-N-[(1S)-2-oxo-2-({2-oxo-2-[4-(2-pyridyloxy)-1-piperidinyl]ethyl}amino)-1-(2-pyridylmethyl)ethyl]-1-benzofuran-2-carboxamide]: the inhibition at 1 µM stood at 100%. Consider `O=C(/C=C/c1ccc(Cl)cc1)N[C@@H](Cc1ccccn1)C(=O)NCC(=O)N1CCC(Oc2ccccc2)CC1` [Compound (e), (2E)-3-(4-Chlorophenyl)-N-[(1S)-2-oxo-2-{[2-oxo-2-(4-phenoxy-1-piperidinyl)ethyl]amino}-1-(2-pyridylmethyl)ethyl]-acrylamide], for which the inhibition at 1 µM is 100%. For the compound `O=C(N[C@@H](Cc1ccccn1)C(=O)NCC(=O)N1CCC(Oc2nccs2)CC1)c1cc2cc(Cl)ccc2o1` [Compound (a), 5-Chloro-N-[(1S)-2-oxo-2-({2-oxo-2-[4-(1,3-thiazol-2-yloxy)-1-piperidinyl]ethyl}amino)-1-(2-pyridylmethyl)ethyl]-1-benzofuran-2-carboxamide], the inhibition at 1 µM worked out at 100%.

In turn, `O=C(N[C@@H](Cc1ccccn1)C(=O)NCC(=O)N1CCC(OCC(F)(F)F)CC1)c1cc2cc(Cl)ccc2o1` [Compound (f), 5-Chloro-N-[(1S)-2-oxo-2-({2-oxo-2-[4-(2,2,2-trifluoroethoxy)-1-piperidinyl]ethyl}amino)-1-(2-pyridylmethyl)-ethyl]-1-benzofuran-2-carboxamide] displayed an inhibition at 1 µM of 100%.
